{"source": "PubChem BioAssay (NCI)", "assay_in_all_cases": "NCI anticancer screen, dose series, 48 h", "key": {"[1]": {"tested_on": "786-0 renal"}, "[2]": {"tested_on": "A549 NSCLC"}, "[3]": {"tested_on": "CAKI-1 renal"}, "[4]": {"tested_on": "CCRF-CEM leukemia"}, "[5]": {"tested_on": "HOP-62 NSCLC"}, "[6]": {"tested_on": "IGROV1 ovarian"}, "[7]": {"tested_on": "KM12 colon"}, "[8]": {"tested_on": "M19-MEL melanoma"}, "[9]": {"tested_on": "MOLT-4 leukemia"}, "[10]": {"tested_on": "NCI-H522 lung"}, "[11]": {"tested_on": "OVCAR-5 ovarian"}, "[12]": {"tested_on": "RPMI-8226 leukemia"}, "[13]": {"tested_on": "SF-268 CNS"}, "[14]": {"tested_on": "SK-MEL-5 melanoma"}, "[15]": {"tested_on": "SR leukemia"}, "[16]": {"tested_on": "TK-10 renal"}, "[17]": {"tested_on": "DU-145 prostate"}, "[18]": {"tested_on": "MCF7 breast"}, "[19]": {"tested_on": "MDA-MB-435"}, "[20]": {"tested_on": "MDA-N"}}, "note": "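Dose response: 5 concentrations. Exposure: 48 h. Format: 96-well plates. Endpoint: linear interpolation; highest concentration if not reached. TGI is the concentration that stops growth completely.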"}
{"compound": "CC1(C)OC(C[C@]2(C#N)C[C@H](CCl)OC(C)(C)O2)C[C@@H](C[C@]2(C#N)C[C@H](CCl)OC(C)(C)O2)O1", "note": "(some centres undefined)", "values": [{"measurement": "TGI", "setting": "[1]", "value": "> 100", "unit": "µM"}, {"measurement": "TGI", "setting": "[2]", "value": "> 100", "unit": "µM"}, {"measurement": "TGI", "setting": "[3]", "value": "> 100", "unit": "µM"}, {"measurement": "TGI", "setting": "[4]", "value": "> 100", "unit": "µM"}, {"measurement": "TGI", "setting": "[5]", "value": "> 100", "unit": "µM"}, {"measurement": "TGI", "setting": "[6]", "value": "> 100", "unit": "µM"}, {"measurement": "TGI", "setting": "[7]", "value": "> 100", "unit": "µM"}, {"measurement": "TGI", "setting": "[8]", "value": "> 100", "unit": "µM"}, {"measurement": "TGI", "setting": "[9]", "value": "> 100", "unit": "µM"}, {"measurement": "TGI", "setting": "[10]", "value": "> 100", "unit": "µM"}, {"measurement": "TGI", "setting": "[11]", "value": "> 100", "unit": "µM"}, {"measurement": "TGI", "setting": "[12]", "value": "> 100", "unit": "µM"}, {"measurement": "TGI", "setting": "[13]", "value": "> 100", "unit": "µM"}, {"measurement": "TGI", "setting": "[14]", "value": "> 100", "unit": "µM"}, {"measurement": "TGI", "setting": "[15]", "value": "> 100", "unit": "µM"}, {"measurement": "TGI", "setting": "[16]", "value": "> 100", "unit": "µM"}]}
{"compound": "N=c1nc2n(cc1F)[C@@H]1O[C@H](CO)[C@@H](O)[C@@H]1O2", "values": [{"measurement": "TGI", "setting": "[1]", "value": "> 38.9", "unit": "µM"}, {"measurement": "TGI", "setting": "[2]", "value": "> 100", "unit": "µM"}, {"measurement": "TGI", "setting": "[3]", "value": "> 100", "unit": "µM"}, {"measurement": "TGI", "setting": "[4]", "value": "> 12.3", "unit": "µM"}, {"measurement": "TGI", "setting": "[17]", "value": "> 100", "unit": "µM"}, {"measurement": "TGI", "setting": "[5]", "value": "> 100", "unit": "µM"}, {"measurement": "TGI", "setting": "[6]", "value": "> 92.7", "unit": "µM"}, {"measurement": "TGI", "setting": "[7]", "value": "> 100", "unit": "µM"}, {"measurement": "TGI", "setting": "[8]", "value": "> 100", "unit": "µM"}, {"measurement": "TGI", "setting": "[18]", "value": "> 100", "unit": "µM"}, {"measurement": "TGI", "setting": "[19]", "value": "> 100", "unit": "µM"}, {"measurement": "TGI", "setting": "[20]", "value": "> 100", "unit": "µM"}, {"measurement": "TGI", "setting": "[9]", "value": 18.9, "unit": "µM"}, {"measurement": "TGI", "setting": "[10]", "value": "> 74.7", "unit": "µM"}, {"measurement": "TGI", "setting": "[11]", "value": "> 100", "unit": "µM"}, {"measurement": "TGI", "setting": "[12]", "value": "> 100", "unit": "µM"}, {"measurement": "TGI", "setting": "[13]", "value": "> 100", "unit": "µM"}, {"measurement": "TGI", "setting": "[14]", "value": "> 74.7", "unit": "µM"}, {"measurement": "TGI", "setting": "[15]", "value": "> 73.7", "unit": "µM"}, {"measurement": "TGI", "setting": "[16]", "value": "> 100", "unit": "µM"}]}
{"compound": "N#C/C(=C\\c1ccc(O)c(O)c1)C(=O)NC1CCC(CC2CCC(NC(=O)/C(C#N)=C/c3ccc(O)c(O)c3)CC2)CC1", "note": "(centres undefined)", "values": [{"measurement": "TGI", "setting": "[1]", "value": 7.37, "unit": "µM"}, {"measurement": "TGI", "setting": "[2]", "value": 4.56, "unit": "µM"}, {"measurement": "TGI", "setting": "[3]", "value": "> 29.3", "unit": "µM"}, {"measurement": "TGI", "setting": "[4]", "value": 4.36, "unit": "µM"}, {"measurement": "TGI", "setting": "[5]", "value": 4.06, "unit": "µM"}, {"measurement": "TGI", "setting": "[7]", "value": 2.92, "unit": "µM"}, {"measurement": "TGI", "setting": "[8]", "value": 5.23, "unit": "µM"}, {"measurement": "TGI", "setting": "[9]", "value": "> 57.5", "unit": "µM"}, {"measurement": "TGI", "setting": "[10]", "value": 4.71, "unit": "µM"}, {"measurement": "TGI", "setting": "[11]", "value": 4.09, "unit": "µM"}, {"measurement": "TGI", "setting": "[12]", "value": "> 25.2", "unit": "µM"}, {"measurement": "TGI", "setting": "[13]", "value": 5.46, "unit": "µM"}, {"measurement": "TGI", "setting": "[14]", "value": 12.8, "unit": "µM"}, {"measurement": "TGI", "setting": "[15]", "value": 3.36, "unit": "µM"}, {"measurement": "TGI", "setting": "[16]", "value": "> 54.7", "unit": "µM"}]}
{"compound": "CCOC(=O)c1cc2c(nc1N)-c1ncccc1CC2", "values": [{"measurement": "TGI", "setting": "[1]", "value": "> 100", "unit": "µM"}, {"measurement": "TGI", "setting": "[2]", "value": "> 100", "unit": "µM"}, {"measurement": "TGI", "setting": "[3]", "value": "> 100", "unit": "µM"}, {"measurement": "TGI", "setting": "[4]", "value": "> 100", "unit": "µM"}, {"measurement": "TGI", "setting": "[5]", "value": "> 100", "unit": "µM"}, {"measurement": "TGI", "setting": "[6]", "value": "> 100", "unit": "µM"}, {"measurement": "TGI", "setting": "[7]", "value": "> 100", "unit": "µM"}, {"measurement": "TGI", "setting": "[8]", "value": "> 100", "unit": "µM"}, {"measurement": "TGI", "setting": "[9]", "value": "> 100", "unit": "µM"}, {"measurement": "TGI", "setting": "[10]", "value": "> 100", "unit": "µM"}, {"measurement": "TGI", "setting": "[11]", "value": "> 100", "unit": "µM"}, {"measurement": "TGI", "setting": "[12]", "value": 68.8, "unit": "µM"}, {"measurement": "TGI", "setting": "[13]", "value": "> 100", "unit": "µM"}, {"measurement": "TGI", "setting": "[14]", "value": "> 100", "unit": "µM"}, {"measurement": "TGI", "setting": "[15]", "value": 57, "unit": "µM"}, {"measurement": "TGI", "setting": "[16]", "value": "> 100", "unit": "µM"}]}
{"compound": "COc1ccc2c3c(n(Cc4ccccc4)c(=O)c2c1)-c1cc(OC)c(OC)cc1C3C", "note": "(centres undefined)", "values": [{"measurement": "TGI", "setting": "[1]", "value": 27.7, "unit": "µM"}, {"measurement": "TGI", "setting": "[2]", "value": "> 100", "unit": "µM"}, {"measurement": "TGI", "setting": "[3]", "value": "> 100", "unit": "µM"}, {"measurement": "TGI", "setting": "[4]", "value": "> 100", "unit": "µM"}, {"measurement": "TGI", "setting": "[5]", "value": "> 70", "unit": "µM"}, {"measurement": "TGI", "setting": "[6]", "value": "> 100", "unit": "µM"}, {"measurement": "TGI", "setting": "[7]", "value": "> 100", "unit": "µM"}, {"measurement": "TGI", "setting": "[8]", "value": "> 73.1", "unit": "µM"}, {"measurement": "TGI", "setting": "[9]", "value": "> 100", "unit": "µM"}, {"measurement": "TGI", "setting": "[10]", "value": 47.8, "unit": "µM"}, {"measurement": "TGI", "setting": "[11]", "value": "> 100", "unit": "µM"}, {"measurement": "TGI", "setting": "[12]", "value": "> 100", "unit": "µM"}, {"measurement": "TGI", "setting": "[13]", "value": "> 63.6", "unit": "µM"}, {"measurement": "TGI", "setting": "[14]", "value": 51.5, "unit": "µM"}, {"measurement": "TGI", "setting": "[15]", "value": "> 100", "unit": "µM"}, {"measurement": "TGI", "setting": "[16]", "value": "> 100", "unit": "µM"}]}
{"compound": "O=C(c1cc2ccccc2o1)N(Cc1ccccc1)c1ccccc1", "values": [{"measurement": "TGI", "setting": "[1]", "value": 46.7, "unit": "µM"}, {"measurement": "TGI", "setting": "[2]", "value": "> 100", "unit": "µM"}, {"measurement": "TGI", "setting": "[3]", "value": 55.5, "unit": "µM"}, {"measurement": "TGI", "setting": "[4]", "value": 37.6, "unit": "µM"}, {"measurement": "TGI", "setting": "[5]", "value": 71.4, "unit": "µM"}, {"measurement": "TGI", "setting": "[6]", "value": "> 100", "unit": "µM"}, {"measurement": "TGI", "setting": "[7]", "value": 46.6, "unit": "µM"}, {"measurement": "TGI", "setting": "[8]", "value": 51.4, "unit": "µM"}, {"measurement": "TGI", "setting": "[9]", "value": 39.9, "unit": "µM"}, {"measurement": "TGI", "setting": "[10]", "value": 33.9, "unit": "µM"}, {"measurement": "TGI", "setting": "[11]", "value": "> 100", "unit": "µM"}, {"measurement": "TGI", "setting": "[12]", "value": 49.8, "unit": "µM"}, {"measurement": "TGI", "setting": "[13]", "value": "> 100", "unit": "µM"}, {"measurement": "TGI", "setting": "[14]", "value": 31.2, "unit": "µM"}, {"measurement": "TGI", "setting": "[15]", "value": 68.4, "unit": "µM"}, {"measurement": "TGI", "setting": "[16]", "value": "> 100", "unit": "µM"}]}
